Earlier results as cited in US8273880B2, “Pyrazole compounds with inhibitory activity against ROS kinase” (Korea Institute of Science and Technology, priority 2009, dated 2012).

Molecular target: ROS kinase (Homo sapiens, UniProt P08922)
Set-up: literature Reaction Biology Corporation
Details: Data from Reaction Biology corporation (website); read-out: Inhibitory Activity against ROS (IC50); cited from earlier work

Chain of ROS kinase (P08922 28-2347): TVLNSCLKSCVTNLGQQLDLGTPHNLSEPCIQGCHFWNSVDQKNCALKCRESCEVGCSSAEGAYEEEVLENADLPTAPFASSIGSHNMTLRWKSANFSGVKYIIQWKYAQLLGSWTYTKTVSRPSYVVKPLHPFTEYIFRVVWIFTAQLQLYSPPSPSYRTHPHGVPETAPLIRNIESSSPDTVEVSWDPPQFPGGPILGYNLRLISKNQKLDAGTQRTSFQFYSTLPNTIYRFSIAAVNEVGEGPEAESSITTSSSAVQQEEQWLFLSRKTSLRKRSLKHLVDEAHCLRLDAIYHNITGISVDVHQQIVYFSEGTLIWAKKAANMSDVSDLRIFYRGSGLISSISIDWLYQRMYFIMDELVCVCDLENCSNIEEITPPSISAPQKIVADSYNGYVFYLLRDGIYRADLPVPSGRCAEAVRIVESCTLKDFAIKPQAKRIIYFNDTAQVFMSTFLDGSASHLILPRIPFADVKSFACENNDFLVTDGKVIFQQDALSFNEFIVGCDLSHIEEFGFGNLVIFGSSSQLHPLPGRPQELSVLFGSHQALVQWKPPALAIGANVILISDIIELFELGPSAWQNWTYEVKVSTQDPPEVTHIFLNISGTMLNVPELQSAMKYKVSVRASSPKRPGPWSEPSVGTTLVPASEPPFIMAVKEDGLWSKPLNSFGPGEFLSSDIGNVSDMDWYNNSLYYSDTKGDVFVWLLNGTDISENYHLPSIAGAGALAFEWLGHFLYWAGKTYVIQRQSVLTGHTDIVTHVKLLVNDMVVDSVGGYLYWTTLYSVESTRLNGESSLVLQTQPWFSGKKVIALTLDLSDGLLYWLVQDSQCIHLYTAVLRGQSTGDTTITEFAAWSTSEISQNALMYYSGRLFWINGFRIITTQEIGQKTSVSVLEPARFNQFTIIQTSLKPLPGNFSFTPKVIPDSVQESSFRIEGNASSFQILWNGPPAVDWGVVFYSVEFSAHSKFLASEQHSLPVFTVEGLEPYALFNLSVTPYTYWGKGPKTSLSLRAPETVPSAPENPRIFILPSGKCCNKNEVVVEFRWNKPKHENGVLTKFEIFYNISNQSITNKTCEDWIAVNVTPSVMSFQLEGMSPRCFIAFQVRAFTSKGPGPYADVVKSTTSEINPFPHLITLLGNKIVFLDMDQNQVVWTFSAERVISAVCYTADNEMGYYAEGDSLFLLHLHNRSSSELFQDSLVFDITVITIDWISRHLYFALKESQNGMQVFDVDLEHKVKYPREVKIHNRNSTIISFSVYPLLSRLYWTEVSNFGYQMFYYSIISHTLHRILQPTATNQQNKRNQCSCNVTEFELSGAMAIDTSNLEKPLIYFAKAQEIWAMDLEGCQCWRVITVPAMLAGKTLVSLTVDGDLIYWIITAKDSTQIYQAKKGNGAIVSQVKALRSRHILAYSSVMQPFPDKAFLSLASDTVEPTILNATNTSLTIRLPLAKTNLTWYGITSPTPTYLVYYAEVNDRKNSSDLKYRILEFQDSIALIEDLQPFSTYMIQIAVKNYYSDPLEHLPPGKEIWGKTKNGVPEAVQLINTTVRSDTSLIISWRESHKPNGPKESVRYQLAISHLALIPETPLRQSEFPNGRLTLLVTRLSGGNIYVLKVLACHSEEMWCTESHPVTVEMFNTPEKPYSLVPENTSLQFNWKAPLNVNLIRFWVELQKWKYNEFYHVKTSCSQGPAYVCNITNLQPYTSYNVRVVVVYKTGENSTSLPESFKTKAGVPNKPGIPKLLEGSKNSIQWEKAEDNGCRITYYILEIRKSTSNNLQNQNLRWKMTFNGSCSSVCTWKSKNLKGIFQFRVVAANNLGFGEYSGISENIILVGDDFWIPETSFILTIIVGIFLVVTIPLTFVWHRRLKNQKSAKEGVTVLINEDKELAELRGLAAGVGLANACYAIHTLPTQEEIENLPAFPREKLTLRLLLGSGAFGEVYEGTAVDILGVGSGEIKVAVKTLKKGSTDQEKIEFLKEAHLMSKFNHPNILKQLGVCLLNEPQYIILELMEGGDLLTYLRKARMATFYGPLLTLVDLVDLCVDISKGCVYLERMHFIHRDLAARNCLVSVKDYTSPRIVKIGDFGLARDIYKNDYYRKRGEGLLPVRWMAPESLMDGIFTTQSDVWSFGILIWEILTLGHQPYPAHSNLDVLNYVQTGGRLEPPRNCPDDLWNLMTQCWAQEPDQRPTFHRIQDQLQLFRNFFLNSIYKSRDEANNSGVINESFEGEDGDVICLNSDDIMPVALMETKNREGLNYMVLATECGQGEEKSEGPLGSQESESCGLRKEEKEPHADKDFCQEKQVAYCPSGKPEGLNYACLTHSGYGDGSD

Compound | IC50
PDGFR I-III | 48 µM
COc1cc2ncnc(Nc3cccc(Cl)c3)c2cc1OC [AG1478] | 13.6 µM
